Measured values reported in patent US7183267B2, “β-lactamase inhibitors and methods of use thereof” (priority 2003, dated 2007).
Converted amounts (≈) assume the structure as drawn.

Tests used:
[1] = tested on: methicillin resistant S. aureus ATCC 33591 (MRSA-ATCC); experiment: MIC assay, broth microdilution, MRSA-ATCC; type: cell-based; settings: Staphylococcus aureus, 24 h
Description: (1) methicillin resistant S. aureus ATCC 33591 (MRSA-ATCC). This strain was obtained from American Type Culture Collection (ATCC), Manassas, Md.;
The strains were processed according to procedures recommended by ATCC, or procedures that are routinely used. Single colonies of each organism were picked for purification to generate pure working cultures. Prior to each experiment each strain was subcultured on a fresh Mueller-Hinton agar plate (MHA).
Inocula for the MIC assays were prepared by transferring a tiny portion of one colony from a MHA plate to 2 ml of Mueller-Hinton broth (MHB) such that the estimated cell density was about 10^7 colony forming unit (CFU)/ml. This cell suspension was then further diluted 10-fold (to 10^6 CFU/ml) by transferring the 2 ml cell suspension to 18 ml of MHB. Addition of 50 μl of this dilute cell suspension to 50 μl of growth medium yielded the desired cell density, namely about 5×10^4 CFU/well, or 5×10^5 CFU/ml.
The MIC value of oxacillin was determined using the broth microdilution procedure recommended by the National Committee of Clinical Laboratory Standards (NCCLS, 2000).
The MIC experiments were performed in duplicate in 96-well microtiter plates using MHB. A stock solution of 2.6 mg/0.5 ml was prepared in dimethylsulfoxide (DMSO). A total of 8 two-fold serial dilutions were made with DMSO. Initial oxacillin doses used were (μg/ml): 64, 32, 16, 8, 4, 2, 1, and 0.5. Doses were adjusted in the confirmatory experiment, if needed, in order to establish an actual MIC value.
(§1) To each well of a 96 well microtiter plate was added 47.5 μl of MHB. A volume of 2.5 μl of each dilution of oxacillin was then transferred to appropriate wells containing the medium. All wells, except the sterility control wells, were then inoculated with 50 μl of a diluted cell suspension to give a final volume of 100 μl and a final cell density of 5×10^4 CFU/well. The volume in the sterility control wells was adjusted to 100 μl with MHB. A sterile pipette tip was used to mix the contents of each well (one tip was used going from the low to the high concentration in the same column). The microtiter plates were covered with the lids and were placed in large Stratagene Big Blue plates (Cat. # 400041). Four large kimwipes moistened with tap water were placed near the edges of the Stratagene plates to prevent evaporation of the medium. The microtiter plates were incubated for at least 24 hours at 35° C. The plates were then evaluated for growth in each well. Controls included: medium sterility and negative control (medium and bacteria only).
The procedure used to determine the antimicrobial activity of the compounds of the present invention was identical to the broth microdilution procedure described above with the exception of the preparation of the stock solutions. Stock solution at concentration of 40.96 mg/0.5 ml was prepared in DMSO for each of the compounds. A total of 8 two-fold dilutions were then made in DMSO. A volume of 2.5 μl of each dilution was delivered to appropriate wells. The initial doses used were (μg/ml): 512, 256, 128, 64, 32, 16, 8, and 4.
(§2) A numerical code was used to evaluate the extent of growth as indicated below. • 0: absence of growth • 1: barely visible (faint) growth • 2: fair growth but less than the negative solvent control • 3: growth is equivalent to the negative solvent control.
(§3) The lowest dose at which no visible growth is observed was determined to be the MIC value.
MIC assays were performed with oxacillin and the four compounds. Each of the compounds was tested at the following 8 doses (μg/ml): 512, 256, 128, 64, 32, 16, 8, and 4. Oxacillin was tested at the following 8 doses (μg/ml): 64, 32, 16, 8, 4, 2, 1, and 0.5.

[2] = tested on: methicillin resistant S. aureus ATCC 33591 (MRSA-ATCC); experiment: Matrix system: oxacillin plus β-lactamase inhibitor, MRSA-ATCC; type: cell-based; settings: for MIC of oxacillin: matrix study
Description: as §1, §2, §3
The effect of the four compounds of the present invention on oxacillin resistance of the MRSA strains was determined using a matrix system. The β-lactamase inhibitors were tested at 5 doses against up to eleven concentrations of oxacillin. […] A 96-well microtiter plate was used for the matrix system. The procedure was identical to that described above for the MIC determination, with the exception that both oxacillin and one each of the β-lactamase inhibitors was added, 2.5 μl each, to the wells prior to addition of the test organisms.
Matrix Study:Oxacillin and Compound FL201 with MRSA-ATCC
Matrix Study: Oxacillin and Compound Fl202 with MRSA-ATCC

COC(=O)c1cc(B(O)O)cc([N+](=O)[O-])c1 [Compound F1202]
MIC [1]: 16 µg/mL (≈ 71.1 µM)
MIC of oxacillin ([2]; with compound 1 μg/ml): 32 µg/mL
MIC of oxacillin ([2]; with compound 2 μg/ml): 16 µg/mL
MIC of oxacillin ([2]; with compound 4 μg/ml): 1 µg/mL
MIC of oxacillin ([2]; with compound 8 μg/ml): 0.125 µg/mL
MIC of oxacillin ([2]; with compound 16 μg/ml): <0.064 µg/mL
extent of growth (numerical code) ([2]; oxacillin 0 μg/ml + compound 1 μg/ml): 3
extent of growth (numerical code) ([2]; oxacillin 0 μg/ml + compound 2 μg/ml): 2
extent of growth (numerical code) ([2]; oxacillin 0 μg/ml + compound 4 μg/ml): 2
extent of growth (numerical code) ([2]; oxacillin 0 μg/ml + compound 8 μg/ml): 1
extent of growth (numerical code) ([2]; oxacillin 0 μg/ml + compound 16 μg/ml): 1
extent of growth (numerical code) ([2]; oxacillin 0.064 μg/ml + compound 1 μg/ml): 3
extent of growth (numerical code) ([2]; oxacillin 0.064 μg/ml + compound 2 μg/ml): 3
extent of growth (numerical code) ([2]; oxacillin 0.064 μg/ml + compound 4 μg/ml): 2
extent of growth (numerical code) ([2]; oxacillin 0.064 μg/ml + compound 8 μg/ml): 1
extent of growth (numerical code) ([2]; oxacillin 0.064 μg/ml + compound 16 μg/ml): 0
extent of growth (numerical code) ([2]; oxacillin 0.125 μg/ml + compound 1 μg/ml): 3
extent of growth (numerical code) ([2]; oxacillin 0.125 μg/ml + compound 2 μg/ml): 3
extent of growth (numerical code) ([2]; oxacillin 0.125 μg/ml + compound 4 μg/ml): 2
extent of growth (numerical code) ([2]; oxacillin 0.125 μg/ml + compound 8 μg/ml): 0
extent of growth (numerical code) ([2]; oxacillin 0.125 μg/ml + compound 16 μg/ml): 0
extent of growth (numerical code) ([2]; oxacillin 0.25 μg/ml + compound 1 μg/ml): 3
extent of growth (numerical code) ([2]; oxacillin 0.25 μg/ml + compound 2 μg/ml): 2
extent of growth (numerical code) ([2]; oxacillin 0.25 μg/ml + compound 4 μg/ml): 1
extent of growth (numerical code) ([2]; oxacillin 0.25 μg/ml + compound 8 μg/ml): 0
extent of growth (numerical code) ([2]; oxacillin 0.25 μg/ml + compound 16 μg/ml): 0
extent of growth (numerical code) ([2]; oxacillin 0.5 μg/ml + compound 1 μg/ml): 3
extent of growth (numerical code) ([2]; oxacillin 0.5 μg/ml + compound 2 μg/ml): 2
extent of growth (numerical code) ([2]; oxacillin 0.5 μg/ml + compound 4 μg/ml): 1
extent of growth (numerical code) ([2]; oxacillin 0.5 μg/ml + compound 8 μg/ml): 0
extent of growth (numerical code) ([2]; oxacillin 0.5 μg/ml + compound 16 μg/ml): 0
extent of growth (numerical code) ([2]; oxacillin 1 μg/ml + compound 1 μg/ml): 3
extent of growth (numerical code) ([2]; oxacillin 1 μg/ml + compound 2 μg/ml): 2
extent of growth (numerical code) ([2]; oxacillin 1 μg/ml + compound 4 μg/ml): 0
extent of growth (numerical code) ([2]; oxacillin 1 μg/ml + compound 8 μg/ml): 0
extent of growth (numerical code) ([2]; oxacillin 1 μg/ml + compound 16 μg/ml): 0
extent of growth (numerical code) ([2]; oxacillin 2 μg/ml + compound 1 μg/ml): 2
extent of growth (numerical code) ([2]; oxacillin 2 μg/ml + compound 2 μg/ml): 2
extent of growth (numerical code) ([2]; oxacillin 2 μg/ml + compound 4 μg/ml): 0
extent of growth (numerical code) ([2]; oxacillin 2 μg/ml + compound 8 μg/ml): 0
extent of growth (numerical code) ([2]; oxacillin 2 μg/ml + compound 16 μg/ml): 0
extent of growth (numerical code) ([2]; oxacillin 4 μg/ml + compound 1 μg/ml): 2
extent of growth (numerical code) ([2]; oxacillin 4 μg/ml + compound 2 μg/ml): 2
extent of growth (numerical code) ([2]; oxacillin 4 μg/ml + compound 4 μg/ml): 0
extent of growth (numerical code) ([2]; oxacillin 4 μg/ml + compound 8 μg/ml): 0
extent of growth (numerical code) ([2]; oxacillin 4 μg/ml + compound 16 μg/ml): 0
extent of growth (numerical code) ([2]; oxacillin 8 μg/ml + compound 1 μg/ml): 2
extent of growth (numerical code) ([2]; oxacillin 8 μg/ml + compound 2 μg/ml): 1
extent of growth (numerical code) ([2]; oxacillin 8 μg/ml + compound 4 μg/ml): 0
extent of growth (numerical code) ([2]; oxacillin 8 μg/ml + compound 8 μg/ml): 0
extent of growth (numerical code) ([2]; oxacillin 8 μg/ml + compound 16 μg/ml): 0
extent of growth (numerical code) ([2]; oxacillin 16 μg/ml + compound 1 μg/ml): 2
extent of growth (numerical code) ([2]; oxacillin 16 μg/ml + compound 2 μg/ml): 0
extent of growth (numerical code) ([2]; oxacillin 16 μg/ml + compound 4 μg/ml): 0
extent of growth (numerical code) ([2]; oxacillin 16 μg/ml + compound 8 μg/ml): 0
extent of growth (numerical code) ([2]; oxacillin 16 μg/ml + compound 16 μg/ml): 0
extent of growth (numerical code) ([2]; oxacillin 32 μg/ml + compound 1 μg/ml): 0
extent of growth (numerical code) ([2]; oxacillin 32 μg/ml + compound 2 μg/ml): 0
extent of growth (numerical code) ([2]; oxacillin 32 μg/ml + compound 4 μg/ml): 0
extent of growth (numerical code) ([2]; oxacillin 32 μg/ml + compound 8 μg/ml): 0
extent of growth (numerical code) ([2]; oxacillin 32 μg/ml + compound 16 μg/ml): 0
extent of growth (numerical code) ([2]; oxacillin 64 μg/ml + compound 1 μg/ml): 0
extent of growth (numerical code) ([2]; oxacillin 64 μg/ml + compound 2 μg/ml): 0
extent of growth (numerical code) ([2]; oxacillin 64 μg/ml + compound 4 μg/ml): 0
extent of growth (numerical code) ([2]; oxacillin 64 μg/ml + compound 8 μg/ml): 0
extent of growth (numerical code) ([2]; oxacillin 64 μg/ml + compound 16 μg/ml): 0
